According to patent US6939569B1, “Medical device having anti-infective and contraceptive properties” (Oxibio, Inc., priority 1998, dated 2005):

Assays:
[1] = tested on: C. albicans
[2] = tested on: C. albicans (ATCC 66027); test: Microbicidal activity of iodate/iodide silicone tablet formulations in inoculated BHI, pH 4.0; type: cell-based; conditions: together with iodate threshold
Description: Experiments were performed to optimize formulations used in fabricating the inventive device formulated with silicone elastomer. […] The polymer was allowed to cure with dibutyl tin dilaurate catalyst additions, and then devices were prepared (0.6 cm diameter 0.3 mm thick) using “hole punch” tablets from the disc shaped device to test for microbicidal activity using C. albicans inoculated BHI. […] Tablets obtained from the fabricated device were suspended in the inoculum at 1 tablet/ml. At varying intervals, aliquots of the inoculum, incubated at 35° C. in air, were subcultured to sheep blood agar plates and incubated for an additional 24 hours at 35° C. in air to determine the effect of the varying formulations on the C. albicans inoculums.

Row | Compound | elemental iodine concentrations required to affect microbial killing [1] | critical media concentration of iodide necessary to effect C. albicans killing [2]
1 | II [elemental iodine] | < 0.01% | 
2 | I [iodide] |  | ≥ 0.5 mM
